{"source": "paper PMC11881906", "about": "“Development of xanthone derivatives as effective broad-spectrum antimicrobials: Disrupting cell wall and inhibiting DNA synthesis” (Science Advances, 2025)", "key": {"MRSA NCTC 10442": {"test_system": "MRSA NCTC 10442", "experiment": "MIC, broth microdilution", "type": "cell-based", "settings": "Staphylococcus aureus; 24-hour incubation, MHB; read-out: MIC90 MRSA NCTC 10442", "procedure": "(§1) MIC was determined using the broth microdilution method in accordance with Clinical and Laboratory Standards Institute guidelines. All compounds were dissolved in dimethyl sulfoxide (DMSO; final DMSO concentration of less than 0.5%) and sterile double-distilled water and then diluted with Mueller-Hinton broth (MHB). Each compound’s stock solution was serially twofold diluted, resulting in concentrations ranging from 0.39 to 100 μg/ml, and thereafter added to sterile 96-well plates. All bacterial cell suspensions were adjusted in MHB to attain a starting inoculum of 1 × 10^6 cells/ml. A total of 100 μl volume of the bacterial suspension was then added to each well. Following a 24-hour incubation at 37°C, the optical density at 600 nm (OD600) was confirmed by measuring absorbance at 600 nm with a BioTek microplate reader. […] All measurements were repeated three times with duplicates each time."}, "K. pneumonia ATCC 14581": {"test_system": "K. pneumonia ATCC 14581", "experiment": "MIC, broth microdilution", "type": "cell-based", "settings": "Klebsiella pneumoniae, ATCC14581; 24-hour incubation, MHB", "procedure": "as §1"}, "MRSA N315": {"test_system": "MRSA N315", "experiment": "MIC, broth microdilution", "type": "cell-based", "settings": "Staphylococcus aureus, 24-hour incubation, MHB, read-out: MIC90 MRSA N315", "procedure": "as §1"}, "A. baumannii ATCC 17978": {"test_system": "A. baumannii ATCC 17978", "experiment": "MIC, broth microdilution", "type": "cell-based", "settings": "Acinetobacter baumannii, ATCC17978; 24-hour incubation, MHB", "procedure": "as §1"}, "K. pneumonia ATCC 10031": {"test_system": "K. pneumonia ATCC 10031", "experiment": "MIC, broth microdilution", "type": "cell-based", "settings": "Klebsiella pneumoniae, ATCC10031; 24-hour incubation, MHB", "procedure": "as §1"}, "[1]": {"settings": "for the free guanidine group, not the whole compound; cited from earlier work"}, "[2]": {"experiment": "In vivo corneal toxicity, fluorescein staining", "set-up": "species or system mice", "settings": "topical application to murine cornea", "procedure": "In addition, the in vivo toxicity assessment of compound XT17 toward murine cornea was conducted through local application using 1% fluorescein sodium solution to stain the cornea."}, "S. aureus ATCC 29213": {"test_system": "S. aureus ATCC 29213", "experiment": "DiSC3(5) membrane depolarization assay", "type": "cell-based, Staphylococcus aureus", "settings": "1× to 8× MIC", "procedure": "The DiSC3(5) assay was carried out to investigate the cytoplasmic membrane depolarization. Mid-log phase bacteria culture was centrifuged and resuspended in sterile Hepes buffer [5 mM (pH 7.4)] to adjust the concentration of bacterial cells to obtain OD600 of 0.1. The bacterial suspension was then incubated with 2 μM DiSC3(5) for 1 hour without being exposed to the light. The change in fluorescence intensity was monitored by a BioTek multidetector microplate reader with an excitation wavelength of 622 nm and an emission wavelength of 670 nm. […] All measurements were repeated three times with duplicates each time."}, "P. aeruginosa ATCC 9027 [3]": {"test_system": "P. aeruginosa ATCC 9027", "experiment": "Time-kill kinetic assay", "type": "cell-based, Pseudomonas aeruginosa", "settings": "5× MIC", "procedure": "The bacterial cultures were standardized to obtain an initial density that ranged from 10^5 to 10^6 cells/ml. The cultures were incubated in a shaking bath at 37°C. Viable counts were determined at 0-, 0.5-, 1.0-, 2.0-, 4.0-, 8.0-, and 24-hour intervals by spotting 10-μl aliquots of serially 10-fold diluted cultures onto Mueller-Hinton agar (MHA) plates. After incubation at 37°C for 24 hours, the bactericidal activity, defined as the ability to reduce the initial inoculum by 3 log10 CFU/ml, was examined for each tested concentration over time. All measurements were repeated three times with duplicates each time."}, "E. coli ATCC 25922": {"test_system": "E. coli ATCC 25922", "experiment": "SYTOX Green uptake assay", "type": "cell-based, Escherichia coli", "settings": "up to 8× MIC", "procedure": "The SYTOX Green uptake was measured to explore the inner membrane permeability. The overnight bacteria culture was centrifuged and resuspended in sterile PBS to obtain an OD600 of 0.2. SYTOX Green dye was added to a final concentration of 0.3 μM and incubated for 20 min without being exposed to the light. Fluorescence was measured at excitation and emission wavelengths of 504 and 523 nm, respectively. […] The changes in fluorescence intensity were continuously monitored for 1 hour. All measurements were repeated three times with duplicates each time."}, "P. aeruginosa ATCC 9027 [4]": {"test_system": "P. aeruginosa ATCC 9027", "experiment": "Serial passage resistance induction", "type": "cell-based, Pseudomonas aeruginosa", "settings": "20-day passages at 0.5× MIC", "procedure": "The bacteria were grown in a medium containing 0.5× MIC of each compound to prepare the bacterial suspension for the next MIC determination. The MICs were then recorded after incubation at 37°C for 24 hours. Daily passages were continued until the initial MIC increased by more than fourfold. The stability of acquired resistance was investigated by MIC determination and repeated for 20 days."}, "E. coli DNA": {"test_system": "E. coli DNA", "experiment": "Electrophoretic mobility shift assay", "type": "binding, Escherichia coli", "settings": "8× MIC", "procedure": "Isolation of DNA from pure culture of E. coli ATCC 25922 was carried out by the TIANamp bacterial DNA kit (TIANGEN, China) according to the manufacturer’s instructions. […] A loading buffer containing 10 mM TE (pH 7.5), 0.03% bromophenol blue, 0.03% xylene cyanol FF, 60% glycerol, and 60 mM EDTA was added in the sample following incubation for 30 min at 37°C. The electrophoresis was then performed at 100 V for 2 hours in 1× tris-acetate-EDTA buffer solution [0.04 M tris-acetate (pH 8.0) and 0.001 M EDTA] using a 1% (w/v) agarose gel. The bands were visualized using the ChemiDoc imaging system with ultraviolet light. All of the experiments were repeated at least twice with duplicates each time."}, "rabbit erythrocytes": {"test_system": "rabbit erythrocytes", "experiment": "Hemolysis assay", "type": "cell-based", "settings": "concentration causing 50% hemolysis of red blood cells; 1 hour, 37°C", "procedure": "The hemolytic activity of antimicrobial agents was investigated as previously described ([70]). Briefly, the rabbit erythrocytes were centrifuged at 2500 rpm for 3 min before being washed twice with sterile phosphate-buffered saline (PBS) (pH 7.4). Subsequently, the erythrocytes were diluted with PBS to a final concentration of 8% (v/v). The DMSO-dissolved compounds were twofold serially diluted in PBS to achieve a final concentration with DMSO less than 0.5%. […] Sterile PBS and 0.2% Triton X-100 were used as negative and positive controls, respectively. After 1 hour of incubation at 37°C, the tested samples were centrifuged at 2500 rpm for 5 min, and aliquots of the supernatant were added to 96-well microplates. The hemoglobin release was determined by measuring the absorbance at 576 nm using a BioTek multimode reader. The percentage of hemolytic activity was calculated using the following formula: Hemolysis rate (%) = [OD576 (compound) − OD576 (PBS)]/[OD576 (Triton X-100) − OD576 (PBS)] × 100. All measurements were repeated three times with duplicates each time."}}}
{"smiles": "CC(C)=CCOc1cc(OCCCNC(=N)N)cc2oc3cc(OCCCNC(=N)N)ccc3c(=O)c12", "note": "[XT17]", "values": [{"measurement": "MIC90", "setting": "MRSA NCTC 10442", "result": 0.39, "unit": "µg/mL"}, {"measurement": "MIC90", "setting": "K. pneumonia ATCC 14581", "result": 12.5, "unit": "µg/mL"}, {"measurement": "MIC90", "setting": "MRSA N315", "result": 0.39, "unit": "µg/mL"}, {"measurement": "MIC90", "setting": "A. baumannii ATCC 17978", "result": 25, "unit": "µg/mL"}, {"measurement": "MIC90", "setting": "K. pneumonia ATCC 10031", "result": 6.25, "unit": "µg/mL"}, {"measurement": "pKa", "setting": "[1]", "result": 12.48}, {"measurement": "corneal damage (slit-lamp, fluorescein staining)", "setting": "[2]", "result": "no notable signs of corneal damage"}, {"measurement": "DiSC3(5) fluorescence intensity (membrane depolarization)", "setting": "S. aureus ATCC 29213", "result": "no changes in fluorescence intensity"}, {"measurement": "log bacterial load reduction", "setting": "P. aeruginosa ATCC 9027 [3]; 1 hour", "result": 3.24, "unit": "log"}, {"measurement": "bacterial regrowth", "setting": "P. aeruginosa ATCC 9027 [3]; at 24 hours", "result": "no bacterial regrowth was observed"}, {"measurement": "SYTOX Green fluorescence intensity (cytoplasmic membrane permeabilization)", "setting": "E. coli ATCC 25922", "result": "did not show a notable increase"}, {"measurement": "increase in MIC values during passages", "setting": "P. aeruginosa ATCC 9027 [4]", "result": "no more than fourfold increase"}, {"measurement": "interaction with E. coli DNA (gel mobility shift)", "setting": "E. coli DNA", "result": "able to directly interact with the E. coli DNA"}, {"measurement": "HC50", "setting": "rabbit erythrocytes", "result": ">200", "unit": "µg/mL"}]}
